IC50 data for twelve compounds are collected here from patent US8575163B2, “Pyrrolopyridinylpyrimidin-2-ylamine derivatives” (Merck Patent GmbH, priority 2009, dated 2013).

For this experiment, the target named is T1, PDK1 (Homo sapiens, UniProt O15530).
T1 construct: His6 (N)
T1 sequence (O15530 51-556 limits assumed): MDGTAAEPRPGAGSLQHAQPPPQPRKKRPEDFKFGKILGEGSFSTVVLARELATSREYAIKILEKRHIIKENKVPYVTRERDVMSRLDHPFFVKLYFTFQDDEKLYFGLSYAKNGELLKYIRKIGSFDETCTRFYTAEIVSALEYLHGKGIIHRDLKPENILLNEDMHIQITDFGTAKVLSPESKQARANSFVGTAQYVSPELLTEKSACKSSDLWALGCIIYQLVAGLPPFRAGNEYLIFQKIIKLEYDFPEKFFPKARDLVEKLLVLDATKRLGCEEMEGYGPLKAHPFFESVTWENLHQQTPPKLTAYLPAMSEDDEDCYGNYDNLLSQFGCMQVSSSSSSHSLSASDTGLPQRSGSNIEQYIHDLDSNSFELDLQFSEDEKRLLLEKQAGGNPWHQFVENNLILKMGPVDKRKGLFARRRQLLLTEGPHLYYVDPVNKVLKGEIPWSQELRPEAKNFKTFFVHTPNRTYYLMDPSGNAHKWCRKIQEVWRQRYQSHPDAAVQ
In words: Test for the inhibition of PDK1 (flashplate, 33P-ATP). Type of experiment: biochemical. The following applies: His6-PDK1 3.4 nM, 4 μM ATP, 30° C., 60 min. On the procedure: The experimental batches are carried out in a flashplate system with 384 wells/microtitration plate.
In each case, the PDK1 sample His6-PDK1(1-50)(3.4 nM), the PDK1 substrate biotin-bA-bA-[…] (400 nM), 4 μM ATP (with 0.2 μCi of ^33 P-ATP/well) and the test substance in 50 μl of conventional experimental solution per well are incubated at 30° C. for 60 min. The test substances are employed in corresponding concentrations (if desired in a dilution series). The control is carried out without test substance. The reaction is stopped using standard methods and washed. The activity of the kinase is measured via the incorporated radioactivity in top count. In order to determine the non-specific kinase reaction (blank value), the experimental batches are carried out in the presence of 100 nM staurosporin.
The radioactivity (decompositions per minute) of the blank value (no use of test substance in the presence of staurosporin) is subtracted from all other radioactivity values. The controls (kinase activity without test substance) are set equal to 100 percent and all other radioactivity values (after subtracting the blank value) are expressed set in relation thereto (for example in % of the control).
[formula] IC50 values (50% inhibition) are determined with the aid of statistics programmes, such as, for example, RS1.
As to `Cn1cc(-c2cnc3[nH]cc(-c4cc(C(C)(O)c5ccccc5F)nc(N)n4)c3c2)cn1` (racemic) [A102, 1-{2-amino-6-[5-(1-methyl-1H-pyrazol-4-yl)-1H-pyrrolo[2,3-b]pyridin-3-yl]-pyrimidin-4-yl}-1-(2-fluorophenyl)ethanol], the IC50 (in general, the concentration at which inhibition is half-maximal) was 10 nM.
The value for `CCC(O)(c1ccncc1)c1cc(-c2c[nH]c3ncc(-c4cnn(C)c4)cc23)nc(N)n1` (single isomer, unassigned) [A20, 1-{2-amino-6-[5-(1-methyl-1H-pyrazol-4-yl)-1H-pyrrolo[2,3-b]pyridin-3-yl]-pyrimidin-4-yl}-1-pyridin-4-ylpropan-1-ol] was 2.2 nM.
Under `CCC(O)(c1ccncc1)c1cc(-c2c[nH]c3ncc(-c4cnn(C)c4)cc23)nc(N)n1` (single isomer, unassigned) [A21, 1-{2-amino-6-[5-(1-methyl-1H-pyrazol-4-yl)-1H-pyrrolo[2,3-b]pyridin-3-yl]-pyrimidin-4-yl}-1-pyridin-4-ylpropan-1-ol] stands 36 nM; under `CCC(O)(c1cccc(F)c1)c1cc(-c2c[nH]c3ncc(-c4ccc(CO)cc4)cc23)nc(N)n1` (single isomer, unassigned) [A33, 1-{2-amino-6-[5-(4-hydroxymethylphenyl)-1H-pyrrolo[2,3-b]pyridin-3-yl]-pyrimidin-4-yl}-1-(3-fluorophenyl)propan-1-ol], 170 nM; under `CCC(O)(c1ccncc1)c1cc(-c2c[nH]c3ncc(-c4cn[nH]c4)cc23)nc(N)n1` (single isomer, unassigned) [A43, 1-{2-amino-6-[5-(1H-pyrazol-4-yl)-1H-pyrrolo[2,3-b]pyridin-3-yl]pyrimidin-4-yl}-1-pyridin-4-ylpropan-1-ol], 1.6 nM.
Under `CCC(O)(c1ccncc1)c1cc(-c2c[nH]c3ncc(-c4cn[nH]c4)cc23)nc(N)n1` (single isomer, unassigned) [A44, 1-{2-amino-6-[5-(1H-pyrazol-4-yl)-1H-pyrrolo[2,3-b]pyridin-3-yl]pyrimidin-4-yl}-1-pyridin-4-ylpropan-1-ol] stands 17 nM; under `Cn1cc(-c2cnc3[nH]cc(-c4cc(C(C)(O)c5cccnc5)nc(N)n4)c3c2)cn1` (single isomer, unassigned) [A57, 1-{2-amino-6-[5-(1-methyl-1H-pyrazol-4-yl)-1H-pyrrolo[2,3-b]pyridin-3-yl]-pyrimidin-4-yl}-1-pyridin-3-ylethanol], 28 nM; under `Cn1cc(-c2cnc3[nH]cc(-c4cc(C(C)(O)c5cccnc5)nc(N)n4)c3c2)cn1` (single isomer, unassigned) [A58, 1-{2-amino-6-[5-(1-methyl-1H-pyrazol-4-yl)-1H-pyrrolo[2,3-b]pyridin-3-yl]-pyrimidin-4-yl}-1-pyridin-3-ylethanol], 85 nM.
Consider `CNc1nc(-c2c[nH]c3ncc(-c4cnn(CCO)c4)cc23)cc(C(C)(O)c2ccccc2)n1` (single isomer, unassigned) [A90, 1-(6-{5-[1-(2-hydroxyethyl)-1H-pyrazol-4-yl]-1H-pyrrolo[2,3-b]pyridin-3-yl}-2-methylaminopyrimidin-4-yl)-1-phenylethanol], for which it took 21 nM to reach half-maximal inhibition (IC50).
The compound `CNc1nc(-c2c[nH]c3ncc(-c4cnn(CCO)c4)cc23)cc(C(C)(O)c2ccccc2)n1` (single isomer, unassigned) [A91, 1-(6-{5-[1-(2-hydroxyethyl)-1H-pyrazol-4-yl]-1H-pyrrolo[2,3-b]pyridin-3-yl}-2-methylaminopyrimidin-4-yl)-1-phenylethanol] had an IC50 of 50 nM.
Under `CO[C@](C)(c1ccccc1)c1cc(-c2c[nH]c3ncc(-c4cnn(CCO)c4)cc23)nc(N)n1` (single isomer, unassigned) [A92] stands 35 nM.
Under `CO[C@@](C)(c1ccccc1)c1cc(-c2c[nH]c3ncc(-c4cnn(CCO)c4)cc23)nc(N)n1` (single isomer, unassigned) [A93] stands 48 nM.
